Patent US20050153943A1, “Methods of simultaneously treating mucositis and fungal infection” (priority 2002, published 2005)

Columns and labels:
Experiment in all cases: Fungal growth on SABHI agar containing CMT (Example 38)
Type in all cases: cell-based
[1] = tested on: Candida albicans, ATCC 14053; conditions: for Growth at 25 μg/ml compared to control at 24 hrs incubation / Growth at 25 μg/ml compared to control at 48 hours: 30° C., growth grade; for Anti-fungal activity (summary in words): 25 μg/ml agar, Example 38
Protocol: (§1) The following fungi were inoculated onto potato dextrose agar (PDA) from stock cultures and incubated aerobically at 30° C.: Aspergillus [NT] 1022, Penicillium sp. (laboratory isolate), Candida albicans, ATCC 14053, and Rhizopus sp. […] The conidia were suspended in 0.9% saline and the turbidity was adjusted to match a 0.5 MacFarland standard (equivalent to approximately 1.5×10^8 cells). Candida albicans was suspended in saline and adjusted to 0.5 MacFarland in a similar manner. These suspensions were diluted 1:100 in sterile 0.9% saline. SABHI Agar (Difco) pH 7.0 was prepared in 100 ml amounts and sterilized at 121° C. for 15 min. […] SABHI Agar plates of each CMT and SAHBI agar without CMT using dimethylsulphoxide (DMSO) as a control were inoculated with 10 μl of conidia suspension of Aspergillus fumigatus, Penicillium sp. and Rhizopus sp. and 10 μl suspension of Candida albicans prepared as described above. The plates were then incubated aerobically for 24 hour and for 48 hours at 30° C. The results are set forth in Table 1 (24 hr. incubation) and Table 2 (48 hr. incubation). [table]

[2] = tested on: Penicillium sp. (laboratory isolate); conditions: for Growth at 25 μg/ml compared to control at 24 hrs incubation / Growth at 25 μg/ml compared to control at 48 hours: 30° C., growth grade; for Anti-fungal activity (summary in words): 25 μg/ml agar, Example 38
Protocol: as §1

[3] = tested on: Aspergillus fumigatus ATCC 1022; conditions: for Growth at 25 μg/ml compared to control at 24 hrs incubation / Growth at 25 μg/ml compared to control at 48 hours: 30° C., growth grade; for Anti-fungal activity (summary in words): 25 μg/ml agar, Example 38
Protocol: as §1

Rhizopus sp. = conditions: for Growth at 25 μg/ml compared to control at 24 hrs incubation / Growth at 25 μg/ml compared to control at 48 hours: 30° C., growth grade
Protocol: as §1

Compound	Growth at 25 μg/ml compared to control at 24 hrs incubation [1]	Growth at 25 μg/ml compared to control at 48 hours [1]	Growth at 25 μg/ml compared to control at 24 hrs incubation [2]	Growth at 25 μg/ml compared to control at 48 hours [2]	Growth at 25 μg/ml compared to control at 24 hrs incubation [3]	Growth at 25 μg/ml compared to control at 48 hours [3]	Growth at 25 μg/ml compared to control at 24 hrs incubation (Rhizopus sp.)	Growth at 25 μg/ml compared to control at 48 hours (Rhizopus sp.)	Anti-fungal activity (summary in words) [2]	Anti-fungal activity (summary in words) [3]	Anti-fungal activity (summary in words) [1]	Anti-fungal activity (summary in words) (Rhizopus sp.; 25 μg/ml agar, Example 38)
4-Dedimethylamino-7-dimethylamino-6-demethyl-6-deoxy-9-ethoxythiocarbonylthio-tetracycline sulfate [Example 7]	0 (complete inhibition of growth.)	0 (complete inhibition of growth.)	3 (25% reduction in growth of colonies compared to control.)	4 (Level of growth in the absence of anti-fungal agent (control).)	0 (complete inhibition of growth.)	4 (Level of growth in the absence of anti-fungal agent (control).)	4 (Level of growth in the absence of anti-fungal agent (control).)	3 (25% reduction in growth of colonies compared to control.)				
CC1(O)c2c(Cl)ccc(O)c2C(=O)C2=C(O)C3(O)C(=O)C(C(N)=O)=C(O)CC3CC21 (centres unmarked) [COL 4, 7-chloro-4-dedimethylaminotetracycline]									demonstrated activity	demonstrated activity		
CC1(O)c2cccc(O)c2C(=O)C2=C(O)C3C(=O)C(C(N)=O)=C(O)CC3CC21 (stereo not drawn) [COL 7, 4-dedimethylamino-12α-deoxytetracycline]											strong activity	
NC(=O)C1=C(O)CC2CC3Cc4c([N+](=O)[O-])ccc(O)c4C(=O)C3=C(O)C2(O)C1=O (centres unmarked) [COL 302, 7-nitro-6-demethyl-6-deoxy-4-dedimethylaminotetracycline]	4 (Level of growth in the absence of anti-fungal agent (control).)	4 (Level of growth in the absence of anti-fungal agent (control).)	3 (25% reduction in growth of colonies compared to control.)	4 (Level of growth in the absence of anti-fungal agent (control).)	0 (complete inhibition of growth.)	4 (Level of growth in the absence of anti-fungal agent (control).)	4 (Level of growth in the absence of anti-fungal agent (control).)	4 (Level of growth in the absence of anti-fungal agent (control).)				
NC(=O)C1=C(O)CC2CC3Cc4ccc([N+](=O)[O-])c(O)c4C(=O)C3=C(O)C2(O)C1=O (centres unmarked) [COL 303, 9-nitro-6-demethyl-6-deoxy-4-dedimethylaminotetracycline]	3 (25% reduction in growth of colonies compared to control.)	4 (Level of growth in the absence of anti-fungal agent (control).)	3 (25% reduction in growth of colonies compared to control.)	4 (Level of growth in the absence of anti-fungal agent (control).)		4 (Level of growth in the absence of anti-fungal agent (control).)	4 (Level of growth in the absence of anti-fungal agent (control).)	4 (Level of growth in the absence of anti-fungal agent (control).)				
CN(C)c1ccc2c(c1O)C(=O)C1=C(O)C3(O)C(=O)C(C(N)=O)=C(O)CC3CC1C2 (centres unmarked) [COL 306, 9-dimethylamino-6-demethyl-6-deoxy-4-dedimethylaminotetracycline]	3 (25% reduction in growth of colonies compared to control.)	4 (Level of growth in the absence of anti-fungal agent (control).)	3 (25% reduction in growth of colonies compared to control.)	4 (Level of growth in the absence of anti-fungal agent (control).)	1 (75% reduction in growth in colonies compared to control.)	4 (Level of growth in the absence of anti-fungal agent (control).)	4 (Level of growth in the absence of anti-fungal agent (control).)	4 (Level of growth in the absence of anti-fungal agent (control).)				
NC(=O)C1=C(O)CC2CC3Cc4ccc(N)c(O)c4C(=O)C3=C(O)C2(O)C1=O (centres unmarked) [COL 308, 9-amino-6-demethyl-6-deoxy-4-dedimethylaminotetracycline]	4 (Level of growth in the absence of anti-fungal agent (control).)	4 (Level of growth in the absence of anti-fungal agent (control).)	0 (complete inhibition of growth.)	0 (complete inhibition of growth.)	0 (complete inhibition of growth.)	1 (75% reduction in growth in colonies compared to control.)	4 (Level of growth in the absence of anti-fungal agent (control).)	4 (Level of growth in the absence of anti-fungal agent (control).)	demonstrated activity	demonstrated activity		
CN(C)CC(=O)Nc1ccc2c(c1O)C(=O)C1=C(O)C3(O)C(=O)C(C(N)=O)=C(O)CC3CC1C2 (centres unmarked) [COL 309, 9-dimethylaminoacetamido-6-demethyl-6-deoxy-4-dedimethylaminotetracycline]	4 (Level of growth in the absence of anti-fungal agent (control).)	4 (Level of growth in the absence of anti-fungal agent (control).)	3 (25% reduction in growth of colonies compared to control.)	4 (Level of growth in the absence of anti-fungal agent (control).)		4 (Level of growth in the absence of anti-fungal agent (control).)	4 (Level of growth in the absence of anti-fungal agent (control).)	4 (Level of growth in the absence of anti-fungal agent (control).)				
O=C(NCN1CCNCC1)C1=C(O)CC2CC3Cc4cccc(O)c4C(=O)C3=C(O)C2(O)C1=O (centres unmarked) [COL 315, 2-CONHCH2-piperazin-1-yl-6-demethyl-6-deoxy-4-dedimethylaminotetracycline]	0 (complete inhibition of growth.)	0 (complete inhibition of growth.)	0 (complete inhibition of growth.)	0 (complete inhibition of growth.)	0 (complete inhibition of growth.)	0 (complete inhibition of growth.)	1 (75% reduction in growth in colonies compared to control.)	1 (75% reduction in growth in colonies compared to control.)	activity against all the fungi tested	activity against all the fungi tested	activity against all the fungi tested	activity against all the fungi tested
CC(=O)Nc1cc(N(C)C)c2c(c1O)C(=O)C1=C(O)C3(O)C(=O)C(C(N)=O)=C(O)CC3CC1C2.O=S(=O)(O)O (centres unmarked) [Example 3, 9-Acetamido-4-dedimethylamino-7-dimethylamino-6-demethyl-6-deoxytetracycline sulfate]	1 (75% reduction in growth in colonies compared to control.)	4 (Level of growth in the absence of anti-fungal agent (control).)	0 (complete inhibition of growth.)	4 (Level of growth in the absence of anti-fungal agent (control).)	0 (complete inhibition of growth.)	4 (Level of growth in the absence of anti-fungal agent (control).)	3 (25% reduction in growth of colonies compared to control.)	1 (75% reduction in growth in colonies compared to control.)				
